Values of other authors, collected in US12285420B2 (ACASTI PHARMA U.S., INC., priority 2018, dated 2025).

Legend:
[1] = nimodipine-treated subarachnoid hemorrhage (SAH) patients
[2] = man, oral administration

- Concentration of nimodipine detected in the cerebrospinal fluid [1]: ≤ 12.5 ng/mL
- Half-life equivalent to earlier elimination rates [2]: 1 to 2 h
Compound: COCCOC(=O)C1=C(C)NC(C)=C(C(=O)OC(C)C)C1c1cccc([N+](=O)[O-])c1 (centres unmarked) [nimodipine, isopropyl 2-methoxyethyl 1,4-dihydro-2,6-dimethyl-4-(m-nitrophenyl)-3,5-pyridinedicarboxylate]
